Earlier results as cited in patent US8097457B2, “Liquid crystalline substrates for culturing cells” (Wisconsin Alumni Research Foundation, priority 2005, dated 2012).

System: live cells
Settings: contacted with live cells for short periods of time

Compound: CCCCCc1ccc(-c2ccc(C#N)cc2)cc1 [5CB, 4′-pentyl-4-cyanobiphenyl]
- toxicity to live cells: cause cell death
